From patent US6913930B2, “Analytical method and apparatus therefor involving continuous titration” (Glaxo Wellcome Inc., priority 1997, dated 2005)
Several values for one entry are separate records, joined by “and”; a condition that tells them apart may be missing. Equal values may be shown once. Marks after values point to notes of the source that are not given here. Blank lines part the entries; values can stand above or below the compound they belong to.

What was measured:
[1] = pKa by continuous titration, apparatus of FIG. 8, optimised buffers, TFA or 1st derivative data processing; conditions: for pKa (1st Deriv.): first derivative method
[2] = physchem
[3] = test solutes; potentiometric titration on Sirius PCA 101 instrument in 0.15 KCl
[4] = pKa by continuous titration, linear pH gradient, apparatus of FIG. 2, 1st derivative peak time read from standards calibration curve; assay type: physicochemical; conditions: from standards calibration curve via time to peak maximum of 1st derivative, gradient over 4 minutes, FIG. 2 apparatus
Method: The following pKa determination experiment was performed on this apparatus.
The two buffers have a common component to which an acidic component is added to form buffer A and a basic component is added to form buffer B. The buffers were made up as follows:
The sample solution was kept constant at 20%. The HP1050 pump was used again with buffer B introduced via channel B and buffer A via channel C. The flow rate of the test mixture stream from the mixer to the detector was 1 cm^3 min^−1.
The calibration results are set out below: Time to peak maximum is from the start of the instrument cycle (when the autosampler first goes into a new sample container).

[5] = physchem; remark: listed apart in the source
[6] = cited from earlier work
[7] = Albert & Serjeant, 1984; corrected for an ionic strength of 0.15 M; cited from earlier work
[8] = run with calibration curve pH=−0.022×time+12.66

- pKa (1st Deriv.) [1, 8]: 5.81 ± 0.40
- pKa [2]: 5.73 ± 0.08
SMILES: NCCCn1ccnc1 [1-(3-Aminopropyl)imidazole, 1-(3-Aminopropyl) imidazole]

SMILES: Oc1ccccc1Cl [2-Cl phenol]
- Known pKa [3]: 8.24
- pKa Derived [4]: 8.15 and 8.16

- pKa [2]: 3.39 ± 0.08
SMILES: Nc1cccc(C(=O)O)c1 [3-Aminobenzoic acid]

SMILES: Oc1cccc(Cl)c1 [3-Cl phenol]
- Known pKa [3]: 8.81
- pKa Derived [4]: 8.79 and 8.78

SMILES: N#Cc1ccc(O)cc1 [4-CN phenol]
- Known pKa [3]: 7.7
- pKa Derived [4]: 7.62 and 7.58

SMILES: Oc1ccc(Cl)cc1 [4-Cl phenol, 4-Chlorophenol]
- pKa ([4]; buffered linear pH gradient (apparatus of FIG. 2), read-out: pKa Derived): 9.14
- pKa Derived [4]: 9.13
- pKa (1st Deriv.) ([1]; run with calibration curve pH=−0.021×time+12.49): 9.16 ± 0.08
- pKa (1st Deriv.) [1, 8]: 9.25 ± 0.07
- pKa (TFA) ([1]; run with calibration curve pH=−0.022×time+12.66, target factor analysis): 9.04 ± 0.01
- pKa ([5]; 0.15 KCl solution): 9.14
- pKa [2]: 9.03 ± 0.03

SMILES: O=[N+]([O-])c1ccc(O)cc1 [4-NO2phenol, p-nitrophenol]
- pKa ([5]; 0.15 KCl solution): 6.89
- pKa (Standard Curve) ([6]; standards STD1, STD2 of Example 3): 6.869
- pKa (calibration standards) ([6]; standards for calibration curves of the FIG. 8 runs): 6.869

- pKa [2]: 9.23 ± 0.1
SMILES: NCc1ccccc1 [Benzylamine]
- pKa (lit. data) [7]: 9.34^a

- pKa [2]: 8.84 ± 0.05
SMILES: O=C1OC(c2ccc(O)cc2)(c2ccc(O)cc2)c2ccccc21 [Phenolphthalein]

SMILES: O=C(O)Cc1ccccc1 [Phenylacetic acid]
- pKa (lit. data) [7]: 4.07^b
- pKa [2]: 4.34 ± 0.01

SMILES: NCCc1ccccc1 [Phenylethylamine]
- pKa [2]: 9.64 ± 0.07

- pKa (1st Deriv.) [1, 8]: 10.03 ± 0.08
- pKa [2]: 10.09 ± 0.03
SMILES: NCCc1c[nH]c2ccc(O)cc12 [Serotonin]
- pKa (lit. data) [7]: 9.80^a and 10.04^a

- pKa [2]: 7.96 ± 0.03
SMILES: CC(C)NCC(O)c1ccc(NS(C)(=O)=O)cc1 (centres unmarked) [Sotalol]

- pKa [2]: 4.15 ± 0.01
SMILES: O=C(O)/C=C/c1ccccc1 [Trans-cinnamic acid]
- pKa (lit. data) [7]: 4.20^b

- pKa [2]: 4.57 ± 0.05
SMILES: O=C(O)C/C=C/c1ccccc1 [Trans-styrylacetic acid]

SMILES: NCCc1c[nH]c2ccccc12 [Tryptamine]
- pKa (1st Deriv.) [1, 8]: 10.05 ± 0.10
- pKa [2]: 9.67 ± 0.03

SMILES: O=C(O)c1ccccc1C(=O)O [phthalate 1, potassium hydrogen phthalate]
- pKa [5]: 4.82
